Series [1] in a line: UV-VIS absorption spectra (optical property test). In kind it is physicochemical. The settings on record: 10 μM, DMSO solution; for Absorbance × 10^4: at maximum absorption peak. The method, then:
The UV-VIS absorption spectra of the compounds (10 μM, DMSO solution) were detected using Shimadzu UV2600 spectrophotometer, and the maximum absorption peak and absorbance of each compound were obtained.

Series [2] has as its system human bladder cancer cell line UM-UC-3. The experiment in a line: In vitro imaging effect test with addition of BSP, UM-UC-3. In kind it is cell-based. The conditions noted are these: 250 μM BSP, compound 1-20 μM with surfactin 1:5, 30 minutes. The method, then:
UM-UC-3 (1.5×10^4/well) were cultured in EMEM medium (containing 10% fetal bovine serum (FBS) and 1% antibiotics (100 U/mL penicillin and 100 U/mL streptomycin)) and seeded in a 96-well plate in advance. The plate was cultured in a 5% CO2 cell culture incubator at 37° C. overnight. The following day, the culture medium was sucked away, and 250 μM of BSP was added to the test wells and preconditioned for 10 minutes, followed by addition of the culture medium containing an appropriate concentration (1-20 μM) of the compound and surfactin (the molar ratio of the test compound to the surfactin being 1:5) with or without 250 μM of BSP, and then incubated for 30 minutes. The cells were rinsed three times with PBS solution, and the near-infrared fluorescence intensity in the bladder cancer cells was observed using an integrated fluorescence microscopic imaging system from Keyence. The conditions for near-infrared photography were Ex=775/50 nm and Em=845/55 nm.

Molecules are shown by their SMILES.

With `CC[N+]1=C(/C=C/C2=C(Cl)C(=C/C=C3/N(CCCCCC(=O)Oc4ccccc4)c4ccc5ccccc5c4C3(C)C)/CCC2)C(C)(C)c2c1ccc1ccccc21` [Example 2], in series [1], the Absorption peak was 833.5 nm and the “Absorbance × 10^4” value is 2.09. Further, in series [2], the “Uptake by UM-UC-3 with or without BSP” value is on record as “may be weakened or enhanced by BSP”.

Turning to `CC[N+]1=C(/C=C/C2=C(Cl)C(=C/C=C3/N(CCCCCC(=O)Oc4ccccc4)c4ccccc4C3(C)C)/CC2)C(C)(C)c2ccccc21` [Example 4, 2-((E)-2-((E)-2-chloro-3-(2-((E)-3,3-dimethyl-1-(6-oxo-6-phenoxyhexyl)indolin-2-ylidene)ethenyl)cyclopent-1-en-1-yl)ethenyl)-1-ethyl-3,3-dimethyl-3H-indol-1-ium Chloride], in series [1], the Absorption peak is 821 nm and the “Absorbance × 10^4” value stood at 2.36. Also, the “Uptake by UM-UC-3 with or without BSP” value in series [2] was “may be weakened or enhanced by BSP”. Regarding `CC[N+]1=C(/C=C/C2=C(Cl)C(=C/C=C3/N(CCCCCC(=O)Oc4ccccc4)c4ccccc4C3(C)C)/CCC2)C(C)(C)c2ccccc21` [Example 12a, 2-((E)-2-((E)-2-chloro-3-(2-((E)-3,3-dimethyl-1-(6-oxo-6-phenoxyhexyl)indolin-2-ylidene)ethenyl)cyclohex-1-en-1-yl)ethenyl)-1-ethyl-3,3-dimethyl-3H-indol-1-ium chloride, reference compound], the “Uptake by UM-UC-3 with or without BSP” value in series [2] is listed as “may be weakened or enhanced by BSP”. `CC[N+]1=C(/C=C/C2=C(Cl)C(=C/C=C3/N(CCCCCC(=O)NCCCCCNC(=O)CCCCCN4/C(=C/C=C5\CCCC(/C=C/C6=[N+](CC)c7ccccc7C6(C)C)=C5Cl)C(C)(C)c5ccccc54)c4ccccc4C3(C)C)/CCC2)C(C)(C)c2ccccc21` [Example 77, 2,2′-((1E,1′E)-((3E,3′E)-(((2E,2′E)-((pentane-1,5-diylbis(azanediyl))bis(6-oxohexane-6,1-diyl))bis(3,3-dimethylindolin-1-yl-2-ylidene))bis(ethane-2,1-diylidene))bis(2-chlorocyclohex-1-en-1-yl-3-ylidene))bis(ethene-2,1-diyl))bis(1-ethyl-3,3-dimethyl-3H-indol-1-ium) Chloride]: in series [1], the Absorption peak came to 794.5 nm and the “Absorbance × 10^4” value is 4.344.

Regarding `CC[N+]1=C(/C=C/C2=C(Cl)C(=C/C=C3/N(CCCCC(=O)NCCCNC(=O)CCCCN4/C(=C/C=C5\CCCC(/C=C/C6=[N+](CC)c7ccccc7C6(C)C)=C5Cl)C(C)(C)c5ccccc54)c4ccccc4C3(C)C)/CCC2)C(C)(C)c2ccccc21.[Cl-].[Cl-]` [Example 82], in series [1], the Absorption peak is reported as 793.5 nm and the “Absorbance × 10^4” value came out at 3.686. The matching figures for `C[N+]1=C(/C=C/C2=C(Cl)C(=C/C=C3/N(CCCCCC(=O)Nc4ccccc4)c4ccccc4C3(C)C)/CC2)C(C)(C)c2ccccc21` [Example 83, 2-((E)-2-((E)-2-chloro-3-(2-((E)-3,3-dimethyl-1-(6-oxo-6-(anilino)hexyl)indol-2-methylene)ethylidene)cyclopent-1-en-1yl)ethenyl)-1,3,3-trimethyl-3H-indol-1-ium Chloride]: 820 nm and 3.079.

For `CC1(C)C(/C=C/C2=C(Cl)C(=C/C=C3/N(CCCCCC(=O)O)c4ccccc4C3(C)C)/CC2)=[N+](CCCCCC(=O)O)c2ccccc21` [Example 84, 1-(5-carboxypentyl)-2-((E)-2-((E)-3-(2-((E)-1-(5-carboxypentyl)-3,3-dimethylindolin-2-ylidene)ethenyl)-2-chlorocyclopent-1-en-1-yl)ethenyl)-3,3-dimethyl-3H-indol-1-ium Chloride], the “Absorbance × 10^4” value in series [1] came out at 2.41. On to `CC1(C)C(/C=C/C2=C(Cl)C(=C/C=C3/N(CCCCCC(=O)O)c4ccccc4C3(C)C)/CCC2)=[N+](CCCCCC(=O)Oc2ccccc2)c2ccccc21` [Example 85A], for which, in series [1], the Absorption peak stood at 796.5 nm and the “Absorbance × 10^4” value came to 2.239. The matching figures for `CC1(C)C(/C=C/C2=C(Cl)C(=C/C=C3/N(CCCCCC(=O)O)c4ccccc4C3(C)C)/CCC2)=[N+](CCCCCC(=O)O)c2ccccc21` [Example 85B]: 796.5 nm and 1.397. With `Cc1cccc(C)c1OC(=O)CCCCC[N+]1=C(/C=C/C2=C(Cl)C(=C/C=C3/N(CCCCCC(=O)O)c4ccccc4C3(C)C)/CC2)C(C)(C)c2ccccc21` [Example 88, 2-((E)-2-((E)-3-(2-((E)-1-(5-carboxypentyl)-3,3-dimethylindolin-2-ylidene)ethenyl)-2-chlorocyclopent-1-en-1-yl)ethenyl)-1-(6-(2,6-dimethylphenoxy)-6-oxohexyl)-3,3-dimethyl-3H-indol-1-ium Acetate], in series [1], the “Absorbance × 10^4” value was determined as 1.75.

For the compound `CC1(C)C(/C=C/C2=C(Cl)C(=C/C=C3/N(CCCCCC(=O)Oc4ccccc4)c4ccccc4C3(C)C)/CC2)=[N+](CCCCCC(=O)O)c2ccccc21.[Cl-]` [Example 89], the “Absorbance × 10^4” value in series [1] amounted to 1.86. Same read-out and setting: the same measure for `CC[N+]1=C(/C=C/C2=C(Cl)C(=C/C=C3/N(CCOCCC(=O)O)c4ccccc4C3(C)C)/CCC2)C(C)(C)c2cc(C(=O)O)ccc21.[Cl-]` [Example 91]: 0.46. As for `CC[N+]1=C(/C=C/C2=C(Cl)C(=C/C=C3/N(CCCCCC(=O)O)c4ccccc4C3(C)C)/CCC2)C(C)(C)c2cc(C(=O)O)ccc21.[Cl-]` [Example 92], in series [1], the “Absorbance × 10^4” value stood at 1.49. Same read-out and setting: the same measure for `CC[N+]1=C(/C=C/C2=C(Br)C(=C/C=C3/N(CCCCCC(=O)O)c4ccccc4C3(C)C)/CCC2)C(C)(C)c2ccccc21.[Cl-]` [Example 96]: 2.45.

For the compound `CC[N+]1=C(/C=C/C2=C(Sc3ccccc3)C(=C/C=C3/N(CCCCCC(=O)Oc4ccccc4)c4ccccc4C3(C)C)/CC2)C(C)(C)c2ccccc21` [Example 101], in series [1], the Absorption peak is given as 836.5 nm and the “Absorbance × 10^4” value turned out to be 1.971. The matching figures for `CC1(C)C(/C=C/C2=C(Oc3ccc(S(=O)(=O)O)cc3)C(=C/C=C3/N(CCCCCC(=O)Oc4ccccc4)c4ccccc4C3(C)C)/C[N+](C)(C)C2)=[N+](CCCCCC(=O)Oc2ccccc2)c2ccccc21` [Example 103]: 757.5 nm and 2.483.

As for `CC[N+]1=C(/C=C/C2=C(OC)C(=C/C=C3/N(CCCCCC(=O)Oc4ccccc4)c4ccccc4C3(C)C)/CCC2)C(C)(C)c2ccccc21` [Example 104], in series [1], the Absorption peak came to 781.5 nm and the “Absorbance × 10^4” value was found to be 2.054. The matching figures for `CC[N+]1=C(/C=C/C2=C(Sc3ccccc3)C(=C/C=C3/N(CCCCCC(=O)Oc4ccccc4)c4ccccc4C3(C)C)/CCC2)C(C)(C)c2ccccc21.[Cl-]` [Example 106]: 807.5 nm and 1.997. The matching figures for `CCN1/C(=C/C=C2\C[N+](C)(C)CC(/C=C/C3=[N+](CC)c4ccccc4C3(C)C)=C2Sc2ccccc2)C(C)(C)c2ccccc21.Cl` [Example 107]: 778.5 nm and 2.028. In the case of `CCN1/C(=C/C=C2\CCCC(/C=C/C3=[N+](CC)c4ccccc4C3(C)C)=C2Sc2ccccc2)C(C)(C)c2ccccc21.[Cl-]` [Example 108], in series [1], the Absorption peak is 805.5 nm and the “Absorbance × 10^4” value is recorded as 1.752. The matching figures for `CC[N+]1=C(/C=C/C2=C(Oc3ccc(S(=O)(=O)O)cc3)C(=C/C=C3/N(CCCCCC(=O)Oc4ccccc4)c4ccccc4C3(C)C)/C[N+](C)(C)C2)C(C)(C)c2ccccc21` [Example 112]: 756 nm and 0.911. For the compound `CC[N+]1=C(/C=C/C2=C(Oc3ccc(C#N)cc3)C(=C/C=C3/N(CCCCCC(=O)Oc4c(C)cccc4C)c4ccccc4C3(C)C)/CCC2)C(C)(C)c2ccccc21` [Example 114], in series [1], the “Absorbance × 10^4” value was 2.46. Still for that read-out and setting: next, `CC[N+]1=C(/C=C/C2=C(Oc3ccc(NC(=O)/C=C/CN(C)C)cc3)C(=C/C=C3/N(CCCCCC(=O)Oc4c(C)cccc4C)c4ccccc4C3(C)C)/CCC2)C(C)(C)c2ccccc21.[Cl-]` [Example 115]: 2.24. In the case of `CC[N+]1=C(/C=C/C2=C(Cl)C(=C/C=C3/N(CCOCCC(=O)Oc4ccccc4)c4ccccc4C3(C)C)/CCC2)C(C)(C)c2cc(C(=O)O)ccc21` [Example 117, 5-carboxy-2-((E)-2-((E)-2-chloro-3-(2-((E)-3,3-dimethyl-1-(2-(3-oxo-3-phenoxypropoxy)ethyl)indolin-2-ylidene)ethenyl)cyclohex-1-en-1-yl)ethenyl)-1-ethyl-3,3-dimethyl-3H-indol-1-ium 2,2,2-trifluoroacetate], the “Absorbance × 10^4” value in series [1] was found to be 1.36. On the same count and under the same terms, the same measure for `C[N+]1=C(/C=C/C2=C(Cl)C(=C/C=C3/N(CCCCCC(=O)O)c4ccccc4C3(C)C)/CCC2)C(C)(C)c2cc(C(=O)O)ccc21` [Example 119, 5-carboxy-2-((E)-2-((E)-3-(2-((E)-1-(5-carboxypentyl)-3,3-dimethylindolin-2-ylidene)ethenyl)-2-chlorocyclohex-1-en-1-yl)ethenyl)-1,3,3-trimethyl-3H-indol-1-ium 2,2,2-trifluoroacetate]: 1.52.
